The results in this text go back to paper PMC11346426, “1-Deoxy-D-xylulose 5-phosphate reductoisomerase as target for anti Toxoplasma gondii agents: crystal structure, biochemical characterization and biological evaluation of inhibitors” (Biochemical Journal, 2024).

Series [1] has as its target TgDXR (Toxoplasma gondii, UniProt S8ESX0). Briefly: T. gondii DXR enzyme inhibition assay (NADPH oxidation, absorption at 340 nm). The series is classed as biochemical. As for the experimental part:
The enzymatic assays were conducted at 30°C in 96 well plates using a total reaction volume of 150 µl containing 100 nM of purified TgDXR protein in dimeric state, 100 µM of NADPH and 4 mM of MgCl2 as cofactors, 100 µM of DXP as substrate in 50 mM HEPES buffer (pH 7.5) containing 50 µg/ml of BSA. For the screening, DXR inhibitors were tested for their inhibitory activity and their IC50 measurements at concentrations ranging from 100 µM to 3.05 nM, in dilution steps 1:2.
To optimize and to ensure the interaction of NADPH and its enzyme binding pocket, the assay solution was incubated for 10 min at 37°C. Then, the reaction was commenced with the addition of 100 µM of DXP to the complete assay mixture. The reaction was monitored by measuring the absorption at 340 nm every minute for 1 h using a microplate reader (Tecan® 200 Pro, Tecan Group, Männedorf, Switzerland). The initial velocity of the reactions were calculated, the values were then used in the software GraphPad PRISM™ (Version 9.5.1; San Diego, CA, U.S.A.) for determinations of the IC50 values.

The subject of series [2] is T. gondii ME49 tachyzoites. Briefly: T. gondii in vitro growth assay ([3H]-uracil incorporation). The series is classed as cell-based, Toxoplasma gondii. As for the experimental part: With the aim to assess the inhibitory in vitro effect on parasite growth, T. gondii growth assays were performed as described previously [[78-80]]. Compounds, previously diluted in culture media in appropriate stock solutions, were added to confluent monolayers of Hs27 cells in 96-flat well plates at various concentrations. Then, freshly harvested tachyzoites were added to the cultures at a multiplicity of infection of 1:1 (parasite/host cell ratio). As controls, untreated and uninfected Hs27 cells, 24 h pre-stimulated and T. gondii infected cells with human interferon γ (IFN γ) (300 U/ml) (Merck, Darmstadt, Germany, #I17001) and T. gondii infected cells only were employed. After 48 h incubation, proliferating toxoplasmas were labelled with 0.3 μCi/well of tritiated uracil (^3H-U; 5 mCi, Hartmann Analytic, Braunschweig, Germany, #ART1782). After 28-30 h of incubation, plates were frozen at -20°C overnight. Cells were then thawed and harvested (Basic96 Harvester; Zinsser Analytic, Skatron Instruments, Northridge, CA, U.S.A.), purified with glass fibre filters (Printed Filtermat A 102 mm × 258 mm; PerkinElmer, Waltham, MA, U.S.A.) and dried at 130°C for 15-20 min. Dried filters were then wrapped into transparent plastic covers, dunked with 10 ml scintillation cocktail (Betaplate Scint; PerkinElmer, Waltham, MA, U.S.A., #1205-440), sealed and then loaded into metal cassettes and the incorporation of ^3H-uracil into the RNA of proliferating toxoplasmas was measured using a β-counter, a liquid scintillation counter that measure the […] (Betaplate Liquid Scintillation Counter 1205; LKB-[…], Melbourne, Australia). All data sets were normalized to 100% of the positive control. The dose-response curves of the compounds were fitted by means of the statistics software GraphPad PRISMTM (Version 9.5.1; San Diego, CA, U.S.A.). The minimal concentrations of compounds required for 50% inhibition of the parasite (IC50 values) were determined by non-linear regression analysis. Pyrimethamine was used as reference anti-toxoplasma compound.

The nature of series [3]: MTT cytotoxicity assay on host cells. The conditions noted are these: human, Hs27 fibroblasts, 24 h incubation. The class given is cell-based. The procedure:
The method based on the reduction of the tetrazolium dye MTT [3-(4,5-dimethylthiazole-2-yl)-2,5-diphenyltetrazolium bromide] to its purple insoluble formazan by mitochondrial NAD(P)H-dependent cellular oxidoreductase enzymes in living cells, previously described by Mosmann was employed to assess the cytotoxic effects of the examined DXR inhibitors on the host cells, as previously described [[78–80]]. Briefly, Hs27 cells were cultured in 96-well plates at a concentration of 5 × 10^4/well in (IMDM, Gibco–Thermo Fisher Scientific, Waltham, MA, U.S.A., #12440053) with a volume of 100 µl per well and incubated at 37°C overnight. Then, eleven two-fold serially diluted concentrations of the investigated compounds ranging from […] were prepared and added to each well. Hs27 cells were then incubated for 24 h in humidified atmosphere of 5% CO2 in air. Controls included wells containing medium alone without cells (blank), untreated Hs27 cells, DMSO (negative control) and staurosporine (0.031, 0.062, 0.125, 0.25, 0.5, 1 µM) (Merck, Darmstadt, Germany, #S4400) as apoptosis inducer. After incubation, the culture media was replaced with 100 µl of DMEM medium without phenol (Gibco-Thermo Fisher Scientific, Waltham, MA, U.S.A., #21041025) plus 10% heat-inactivated (FBS Standard, South America origin, FBS, 2 µm sterile filtered, PAN-Biotech, Aidenbach, Germany, #P30-3306), and […] 2-mercaptoethanol (Gibco-Thermo Fisher Scientific, Waltham, MA, U.S.A., #21985023). Thereafter, the MTT reagent was added to each well and analysis conducted following the manufacture instructions (CyQuant MTT Cell Viability Assay Kit, Thermo Fisher Scientific, Waltham, MA, U.S.A., #V-13154). The absorbance was measured at 570 nm on an ELISA microplate reer (TECAN Sunrise, Männedorf, Switzerland) and the percentage of viability was calculated when compared with the untreated control. The data set was subsequently adjusted by applying blank correction. Cell viability values expressed as percentage of the negative control value were calculated as follows: %Cellviability=meanabsorbanceoftreatedwells−blank/meanabsorbanceofnegativecontrol−blank×100. The cytotoxicity of each compound was expressed as half maximal cytotoxic concentration (CC50 values) against Hs27 cells. These values were calculated by a non-linear regression using GraphPad PRISM™ statistics software package (Version 9.5.1; San Diego, CA, U.S.A.) plotting the percentage viability against the log of compound concentrations.
Background: Tetrazolium dyes change colour on reduction, which living cells bring about.

In series [4] the test system is human fibroblasts Hs27. The series is described as follows: MTT cytotoxicity assay on host cells. The class given is cell-based. The note with it: concentration range 0.19–200 µM.

Sequence of TgDXR (S8ESX0 entry or part of it): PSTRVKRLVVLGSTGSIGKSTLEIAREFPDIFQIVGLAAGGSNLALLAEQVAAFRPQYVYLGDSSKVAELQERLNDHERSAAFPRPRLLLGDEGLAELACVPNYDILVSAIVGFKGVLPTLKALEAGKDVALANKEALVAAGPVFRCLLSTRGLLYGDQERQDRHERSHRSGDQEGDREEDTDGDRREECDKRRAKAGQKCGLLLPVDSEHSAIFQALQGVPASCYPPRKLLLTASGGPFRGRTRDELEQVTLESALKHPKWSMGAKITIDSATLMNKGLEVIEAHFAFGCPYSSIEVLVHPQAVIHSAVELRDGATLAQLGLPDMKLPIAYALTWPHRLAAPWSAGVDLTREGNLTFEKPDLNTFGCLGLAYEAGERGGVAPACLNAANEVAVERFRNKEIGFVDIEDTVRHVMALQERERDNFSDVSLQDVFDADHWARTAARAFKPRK

By IC50 is commonly meant the midpoint of a concentration-inhibition curve. High values mean lower potency, low ones higher potency. What is called CC50 is the concentration at which the toxic effect on the cells reaches its halfway point. Higher therefore signals better tolerance by the cells. For the molecule `O=CN(O)CCCP(=O)(O)O` [Compound 1, Fosmidomycin, reference compound], the IC50 in series [1] is 1.03 ± 0.21 µM; in series [2] (Toxoplasma gondii, T. gondii type II ME49 strain in Hs27 host cells, n = 6) it was over 200 µM. Further, the “activity against T. gondii growth (in words)” value in series [2] (T. gondii type II ME49 strain, [3H]-uracil incorporation) is “no activity”. The molecule further returned a cytotoxic concentration (CC50) at 24 h in series [3] of over 200 µM. Also, the “host cell cytotoxicity (in words)” value in series [4] is reported as “did not show any detectable host cytotoxicity”.
